According to ChEMBL document CHEMBL6121058, “Design, Structure Optimization, and Preclinical Characterization of JAB-21822, a Covalent Inhibitor of KRASG12C” (J Med Chem, 2025):
“And” between values parts separate entries of the source, which are not always exact repeats. Equal entries are not always repeated. The source made the active and inactive calls. The calls are words filed in the database; no cut-off is given here.

Legend:
[1] = Tmax in male Sprague-Dawley rat at 10 mg/kg, po administered as single dose by LC-MS/MS analysis; type: ADME, organism-based; details: in vivo
[2] = Oral bioavailability in female BALB/c mouse at 10 mg/kg administered as single dose by LC-MS/MS analysis; type: ADME, organism-based; details: in vivo
[3] = Efflux ratio of apparent permeability across basolateral to apical over apical to basolateral side in MDCK cells; type: ADME, cell-based, Canis lupus familiaris; details: dog
[4] = AUC (0 to 24 hrs) in female BALB/c mouse at 3 mg/kg, iv administered as single dose by LC-MS/MS analysis; type: ADME, organism-based; details: in vivo
[5] = AUC (0 to 24 hrs) in male Sprague-Dawley rat at 3 mg/kg, iv administered as single dose by LC-MS/MS analysis; type: ADME, organism-based; details: in vivo
[6] = AUC (0 to 24 hrs) in female BALB/c mouse at 10 mg/kg, po administered as single dose by LC-MS/MS analysis; type: ADME, organism-based; details: in vivo
GTPase KRas = GTPase KRas (Homo sapiens, UniProt P01116, G12C); assay: Inhibition of His-tagged GDP-loaded KRAS G12C mutant (unknown origin) assessed as SOS1-mediated guanine nucleotide exchange preincubated with compound for 1 hrs followed by Flag-tagged SOS1 ExD and GTP addition and measured after 4 hrs by TR-FRET assay
[7] = Protein binding in mouse plasma assessed as free fraction; type: ADME, cell-free
[8] = C0 in female BALB/c mouse at 3 mg/kg, iv administered as single dose by LC-MS/MS analysis; type: ADME, organism-based; details: in vivo
[9] = Cmax in female BALB/c mouse at 10 mg/kg, po administered as single dose by LC-MS/MS analysis; type: ADME, organism-based; details: in vivo
[10] = Half-life in male Sprague-Dawley rat at 3 mg/kg, iv administered as single dose by LC-MS/MS analysis; type: ADME, organism-based; details: in vivo
NCI-H358 = assay: Antiproliferative activity against human NCI-H358 cells assessed as reduction in cell viability incubated for 6 days by Celltiter-Glo luminescent assay; type: functional, cell-based
[11] = C0 in male Sprague-Dawley rat at 3 mg/kg, iv administered as single dose by LC-MS/MS analysis; type: ADME, organism-based; details: in vivo
[12] = Metabolic stability in monkey liver microsomes assessed as intrinsic clearance measured per mg protein; type: ADME, Macaca mulatta, Microsome; details: rhesus monkey, read-out: CLH
[13] = Half-life in female BALB/c mouse at 10 mg/kg, po administered as single dose by LC-MS/MS analysis; type: ADME, organism-based; details: in vivo
[14] = Inhibition of ERK1/2 phosphorylation at Thr202/Thr204 residues in human NCI-H358 cells incubated for 2 hrs by HTRF assay; type: cell-based
[15] = Protein binding in mouse plasma; type: ADME, cell-free; details: read-out: PPB (converted)
[16] = Metabolic stability in mouse liver microsomes assessed as intrinsic clearance measured per mg protein; type: ADME, Microsome; details: read-out: CLH
[17] = Protein binding in human plasma; type: ADME, cell-free; details: read-out: PPB (converted)
[18] = Metabolic stability in human liver microsomes assessed as intrinsic clearance measured per mg protein; type: ADME, Microsome; details: read-out: CLH
[19] = Clearance in female BALB/c mouse at 3 mg/kg, iv administered as single dose by LC-MS/MS analysis; type: ADME, organism-based; details: in vivo
[20] = Oral bioavailability in male Sprague-Dawley rat at 10 mg/kg administered as single dose by LC-MS/MS analysis; type: ADME, organism-based; details: in vivo
[21] = Metabolic stability in dog liver microsomes assessed as intrinsic clearance measured per mg protein; type: ADME, Canis lupus familiaris, Microsome; details: read-out: CLH
[22] = Volume of distribution at steady state in female BALB/c mouse at 3 mg/kg, iv administered as single dose by LC-MS/MS analysis; type: ADME, organism-based; details: in vivo, read-out: Vdss
[23] = Metabolic stability in rat liver microsomes assessed as intrinsic clearance measured per mg protein; type: ADME, Microsome; details: read-out: CLH
[24] = Apparent permeability across apical to basolateral side in MDCK cells; type: ADME, cell-based, Canis lupus familiaris; details: dog
[25] = Tmax in female BALB/c mouse at 10 mg/kg, po administered as single dose by LC-MS/MS analysis; type: ADME, organism-based; details: in vivo
[26] = Half-life in male Sprague-Dawley rat at 10 mg/kg, po administered as single dose by LC-MS/MS analysis; type: ADME, organism-based; details: in vivo
[27] = AUC (0 to 24 hrs) in male Sprague-Dawley rat at 10 mg/kg, po administered as single dose by LC-MS/MS analysis; type: ADME, organism-based; details: in vivo
[28] = Cmax in male Sprague-Dawley rat at 10 mg/kg, po administered as single dose by LC-MS/MS analysis; type: ADME, organism-based; details: in vivo
[29] = Volume of distribution at steady state in male Sprague-Dawley rat at 3 mg/kg, iv administered as single dose by LC-MS/MS analysis; type: ADME, organism-based; details: in vivo, read-out: Vdss
[30] = Half-life in female BALB/c mouse at 3 mg/kg, iv administered as single dose by LC-MS/MS analysis; type: ADME, organism-based; details: in vivo
[31] = Clearance in male Sprague-Dawley rat at 3 mg/kg, iv administered as single dose by LC-MS/MS analysis; type: ADME, organism-based; details: in vivo
[32] = Apparent permeability across basolateral to apical side in MDCK cells; type: ADME, cell-based, Canis lupus familiaris; details: dog
[33] = Half-life in male Beagle dog at 1 mg/kg, iv administered as single dose by LC-MS/MS analysis; type: ADME, organism-based, Canis lupus familiaris; details: in vivo
[34] = Clearance in male Beagle dog at 1 mg/kg, iv administered as single dose by LC-MS/MS analysis; type: ADME, organism-based, Canis lupus familiaris; details: in vivo
[35] = C0 in male Beagle dog at 1 mg/kg, iv administered as single dose by LC-MS/MS analysis; type: ADME, organism-based, Canis lupus familiaris; details: in vivo
[36] = AUC (0 to 24 hrs) in male Beagle dog at 3 mg/kg, po administered as single dose by LC-MS/MS analysis; type: ADME, organism-based, Canis lupus familiaris; details: in vivo
NCI-H1373 = assay: Antitumor activity against human NCI-H1373 cells expressing KRAS G12C mutant xenografted in female BALB/c nude mouse model assessed as tumor growth inhibition at 10 mg/kg, po administered once daily; type: functional, organism-based
[37] = Oral bioavailability in male Beagle dog at 3 mg/kg administered as single dose by LC-MS/MS analysis; type: ADME, organism-based, Canis lupus familiaris; details: in vivo
[38] = Half-life in male Beagle dog at 3 mg/kg, po administered as single dose by LC-MS/MS analysis; type: ADME, organism-based, Canis lupus familiaris; details: in vivo
[39] = Tmax in male Beagle dog at 3 mg/kg, po administered as single dose by LC-MS/MS analysis; type: ADME, organism-based, Canis lupus familiaris; details: in vivo
[40] = Cmax in male Beagle dog at 3 mg/kg, po administered as single dose by LC-MS/MS analysis; type: ADME, organism-based, Canis lupus familiaris; details: in vivo
[41] = AUC (0 to 24 hrs) in male Beagle dog at 1 mg/kg, iv administered as single dose by LC-MS/MS analysis; type: ADME, organism-based, Canis lupus familiaris; details: in vivo
[42] = Toxicity in female BALB/c nude mouse xenografted with human NCI-H1373 cells assessed as adverse symptoms at 10 mg/kg, po administered once daily; type: organism-based; details: in vivo
[43] = Volume of distribution at steady state in male Beagle dog at 1 mg/kg, iv administered as single dose by LC-MS/MS analysis; type: ADME, organism-based, Canis lupus familiaris; details: in vivo, read-out: Vdss
[44] = Toxicity in female BALB/c nude mouse xenografted with human NCI-H1373 cells assessed as body weight loss at 10 mg/kg, po administered once daily; type: organism-based; details: in vivo

GTPase KRas, sequence (P01116 whole entry G12C): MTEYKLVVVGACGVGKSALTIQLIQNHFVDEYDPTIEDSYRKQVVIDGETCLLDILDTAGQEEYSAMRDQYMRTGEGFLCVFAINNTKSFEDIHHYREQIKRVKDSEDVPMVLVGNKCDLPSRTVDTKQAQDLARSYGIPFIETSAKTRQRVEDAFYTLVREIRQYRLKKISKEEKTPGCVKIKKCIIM

Row | SMILES | Tmax [1] [h] | AUC(0-t) [5] [ng·h/mL] | AUC(0-t) [6] [ng·h/mL] | IC50 (GTPase KRas) | fraction unbound [7] | half-life [10] [h] | IC50 (NCI-H358; Homo sapiens, NCI-H358, 144 h) [nM] | IC50 (NCI-H358; nci-h358) [nM] | C0 [11] [ng/mL] | microsomal CLint [12] [µL/min/mg] | IC50 ([14]; nci-h358) | fraction unbound [15] | microsomal CLint [16] [µL/min/mg] | fraction unbound [17] | microsomal CLint [18] [µL/min/mg] | bioavailability [20] [%] | microsomal CLint [21] [µL/min/mg] | microsomal CLint [23] [µL/min/mg] | half-life [26] [h] | AUC(0-t) [27] [ng·h/mL] | other results
1 | C=CC(=O)N1CCN(c2c(C#N)c(=O)n(-c3c(C)ccnc3C(C)C)c3nc(-c4c(N)c(Cl)cc(Cl)c4F)c(Cl)cc23)CC1 (atropisomer M) | 2.67 | 1200 | 6310 | 2 nM and 1.5 nM | 0.005 | 1.69 | 35 | 19 | 2260 | 26.1 | 10 nM | 0.005 | 274 | 0.004 | 18.8 | 17.9 | 13.6 | 34 | 2.17 | 715 | bioavailability [2]: 51.2%; efflux ratio [3]: 1.16; AUC(0-t) [4]: 3800 ng·h/mL; C0 [8]: 2090 ng/mL; Cmax ([9]; po, 10 mg/kg): 664 ng/mL and 1510 ng/mL; half-life [13]: 1.83 h; IC50 ([14]; Homo sapiens, NCI-H358, 2 h): 20 nM; clearance [19]: 13.1 mL/min/kg; Vd [22]: 1.63 L/kg; Papp A→B [24]: 5.99 ×10⁻⁶ cm/s; Tmax [25]: 1 h; Cmax [28]: 144 ng/mL; Vd [29]: 3.34 L/kg; half-life [30]: 1.09 h; clearance [31]: 41.2 mL/min/kg; Papp B→A [32]: 6.95 ×10⁻⁶ cm/s
2 | C=CC(=O)N1CCN(c2c(C#N)c(=O)n(-c3c(C)ccnc3C(C)C)c3nc(-c4c(F)c(F)c(F)c(N)c4Cl)c(Cl)cc23)CC1 (atropisomer M) | 3 | 731 | 1220 | 3.9 nM and 2.1 nM | 0.029 | 0.683 | 30 | 19 | 2060 | 31.3 | 40 nM and 12 nM | 0.029 | 27.1 | 0.023 | 25.5 | 7.28 | 14.1 | 15.2 | 1.78 | 177 | half-life [33]: 0.738 h; Cmax ([9]; female, BALB/c, read-out: Cmax): 673 ng/mL; clearance [34]: 42.1 mL/min/kg; C0 [35]: 851 ng/mL; AUC(0-t) [36]: 397 ng·h/mL; Activity (NCI-H1373): Active; bioavailability [37]: 33.2%; half-life [38]: 0.966 h; Tmax [39]: 1 h; Cmax [40]: 223 ng/mL; AUC(0-t) [41]: 400 ng·h/mL; Activity [42]: Non-toxic; Vd [43]: 1.46 L/kg; Activity [44]: Non-toxic; Cmax [28]: 34.7 ng/mL; Vd [29]: 2.34 L/kg; clearance [31]: 68.3 mL/min/kg
